This passage reports T/C results from PubChem BioAssay AID328 (DTP/NCI, 2004).

The test system of the test is BDF1 mice, P388 leukemia ip, median survival T/C. As to the kind of experiment: NCI In Vivo Anticancer Drug Screen. Data for tumor model P388 Leukemia (intraperitoneal) in B6D2F1 (BDF1) mice. Particulars: endpoint: median survival time, higher = longer survival. Put shortly: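 Read-out is survival of treated animals expressed relative to the vehicle group, as a T/C ratio.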

Where [1] appears, read: dose: 100.0 mg/kg/injection, schedule: Q04DX003 (ip), vehicle: Klucel (hydroxypropylcellulose) (HPC).
Where [2] appears, read: dose: 25.0 mg/kg/injection, schedule: Q04DX003 (ip), vehicle: saline.
The mark [3] stands for this setting: dose: 100.0 mg/kg/injection, schedule: Q04DX003 (ip), vehicle: saline with Tween-80.
Where [4] appears, read: dose: 12.5 mg/kg/injection, schedule: Q01DX009 (ip), vehicle: saline with Tween-80.

Values joined by “and” are separate entries in the source; they are usually repeats but may differ in a detail not shown here. Equal values may be shown once. Toxic doses and inconclusive results are not listed.

Turning to `COc1ccc2nc3c4ccccc4scc-3c2c1`, the T/C is 109 % of control (dose: 25.0 mg/kg/injection, schedule: Q04DX003 (ip), vehicle: Klucel (hydroxypropylcellulose) (HPC)); 109 % of control (dose: 50.0 mg/kg/injection, schedule: Q04DX003 (ip), vehicle: Klucel (hydroxypropylcellulose) (HPC)); 100 % of control under setting [1]; 109 % of control (dose: 148.5 mg/kg/injection, schedule: Q04DX003 (ip), vehicle: Klucel (hydroxypropylcellulose) (HPC)); 116 % of control (dose: 150.0 mg/kg/injection, schedule: Q04DX003 (ip), vehicle: Klucel (hydroxypropylcellulose) (HPC)); 100 % of control (dose: 225.0 mg/kg/injection, schedule: Q04DX003 (ip), vehicle: Klucel (hydroxypropylcellulose) (HPC)). Besides, the T/C (dose: 337.5 mg/kg/injection, schedule: Q04DX003 (ip), vehicle: Klucel (hydroxypropylcellulose) (HPC)) was 113 % of control.

As for `O=CNC(Cc1ccc(N(CCCl)CCCl)cc1)C(=O)O` (stereo not given), the T/C runs as follows: (dose: 1.1 mg/kg/injection, schedule: Q01DX009 (ip), vehicle: Klucel (hydroxypropylcellulose) (HPC)) 107 % of control; (dose: 1.46 mg/kg/injection, schedule: Q04DX003 (ip), vehicle: saline) 104 % of control; (dose: 1.56 mg/kg/injection, schedule: Q01DX009 (ip), vehicle: saline) 118 % of control; (dose: 1.7 mg/kg/injection, schedule: Q01DX009 (ip), vehicle: Klucel (hydroxypropylcellulose) (HPC)) 107 % of control; (dose: 2.2 mg/kg/injection, schedule: Q04DX003 (ip), vehicle: saline) 100 % of control; (dose: 3.13 mg/kg/injection, schedule: Q01DX009 (ip), vehicle: saline) 104 % of control. Further, the T/C is, setting by setting: (dose: 3.3 mg/kg/injection, schedule: Q04DX003 (ip), vehicle: saline) 118 % of control; (dose: 5.0 mg/kg/injection, schedule: Q04DX003 (ip), vehicle: saline) 122 % of control; (dose: 6.25 mg/kg/injection, schedule: Q01DX009 (ip), vehicle: Klucel (hydroxypropylcellulose) (HPC)) 175 % of control; (dose: 6.25 mg/kg/injection, schedule: Q01DX009 (ip), vehicle: saline) 181 % of control; (dose: 8.3 mg/kg/injection, schedule: Q04DX003 (ip), vehicle: Klucel (hydroxypropylcellulose) (HPC)) 109 % of control; (dose: 11.0 mg/kg/injection, schedule: Q04DX003 (ip), vehicle: saline) 160 % of control. Further, the T/C reads like this: (dose: 12.0 mg/kg/injection, schedule: Q04DX003 (ip), vehicle: Klucel (hydroxypropylcellulose) (HPC)) 118 % of control; (dose: 12.5 mg/kg/injection, schedule: Q01DX009 (ip), vehicle: Klucel (hydroxypropylcellulose) (HPC)) 185 % of control; (dose: 16.0 mg/kg/injection, schedule: Q01DX009 (ip), vehicle: Klucel (hydroxypropylcellulose) (HPC)) 160 % of control and 200 % of control; (dose: 16.5 mg/kg/injection, schedule: Q04DX003 (ip), vehicle: saline) 163 % of control and 169 % of control; (dose: 23.3 mg/kg/injection, schedule: Q01DX009 (ip), vehicle: Klucel (hydroxypropylcellulose) (HPC)) 170 % of control; (dose: 25.0 mg/kg/injection, schedule: Q01DX009 (ip), vehicle: Klucel (hydroxypropylcellulose) (HPC)) 230 % of control and 220 % of control. Also, the T/C runs as follows: under setting [2], 172 % of control and 200 % of control; (dose: 29.0 mg/kg/injection, schedule: Q04DX003 (ip), vehicle: Klucel (hydroxypropylcellulose) (HPC)) 115 % of control; (dose: 35.0 mg/kg/injection, schedule: Q01DX009 (ip), vehicle: Klucel (hydroxypropylcellulose) (HPC)) 245 % of control and 195 % of control; (dose: 37.5 mg/kg/injection, schedule: Q04DX003 (ip), vehicle: saline) 234 % of control and 186 % of control; (dose: 40.0 mg/kg/injection, schedule: Q04DX003 (ip), vehicle: Klucel (hydroxypropylcellulose) (HPC)) 204 % of control; (dose: 44.0 mg/kg/injection, schedule: Q04DX003 (ip), vehicle: Klucel (hydroxypropylcellulose) (HPC)) 240 % of control. Also, the T/C is 272 % of control (dose: 50.0 mg/kg/injection, schedule: Q01DX009 (ip), vehicle: Klucel (hydroxypropylcellulose) (HPC)); 272 % of control (dose: 60.0 mg/kg/injection, schedule: Q04DX003 (ip), vehicle: Klucel (hydroxypropylcellulose) (HPC)); 280 % of control (dose: 66.0 mg/kg/injection, schedule: Q04DX003 (ip), vehicle: Klucel (hydroxypropylcellulose) (HPC)); 175 % of control under setting [1]; 95 % of control under setting [3]; 250 % of control (dose: 132.0 mg/kg/injection, schedule: Q04DX003 (ip), vehicle: Klucel (hydroxypropylcellulose) (HPC)). Besides, the T/C (dose: 200.0 mg/kg/injection, schedule: Q04DX003 (ip), vehicle: Klucel (hydroxypropylcellulose) (HPC)) is 185 % of control.

Regarding `O=C(O)c1cc(Cl)c(C(=O)O)cc1Cl`, the T/C is 116 % of control (dose: 75.0 mg/kg/injection, schedule: Q01DX009 (ip), vehicle: saline with Tween-80); 104 % of control (dose: 150.0 mg/kg/injection, schedule: Q01DX009 (ip), vehicle: saline with Tween-80); 108 % of control (dose: 300.0 mg/kg/injection, schedule: Q01DX009 (ip), vehicle: saline with Tween-80).

On to `COCCn1c2nc(=O)n(-c3ccccc3)c(=O)c-2nc2ccccc21`, for which the T/C by setting is: under setting [4], 89 % of control; (dose: 25.0 mg/kg/injection, schedule: Q01DX009 (ip), vehicle: saline with Tween-80) 114 % of control; (dose: 50.0 mg/kg/injection, schedule: Q01DX009 (ip), vehicle: saline with Tween-80) 91 % of control.

For `NC(=O)CC(NC(=O)CCl)C(=O)O` (stereo not given), the T/C runs as follows: under setting [3], 90 % of control; (dose: 200.0 mg/kg/injection, schedule: Q04DX003 (ip), vehicle: saline with Tween-80) 90 % of control; (dose: 400.0 mg/kg/injection, schedule: Q04DX003 (ip), vehicle: saline with Tween-80) 86 % of control.

On to `CCCCCC(O)CCCCC`, for which the T/C (dose: 100.0 mg/kg/injection, schedule: Q01DX009 (ip), vehicle: saline with Tween-80) was 104 % of control and the T/C (dose: 200.0 mg/kg/injection, schedule: Q01DX009 (ip), vehicle: saline with Tween-80) is 95 % of control.

Take `CC(C)(C)C1=C[P+](c2ccccc2)(c2ccccc2)C(C(C)(C)C)=C[P+]1(c1ccccc1)c1ccccc1`: the T/C was 96 % of control (dose: 12.5 mg/kg/injection, schedule: Q01DX009 (ip), vehicle: saline); 96 % of control (dose: 12.5 mg/kg/injection, schedule: Q04DX003 (ip), vehicle: saline); 107 % of control (dose: 25.0 mg/kg/injection, schedule: Q01DX009 (ip), vehicle: saline); 100 % of control under setting [2]; 96 % of control (dose: 50.0 mg/kg/injection, schedule: Q04DX003 (ip), vehicle: saline).

On to `Cc1[nH]c(=O)[nH]c(=O)c1N(CCF)CCCl`, for which the T/C (dose: 5.0 mg/kg/injection, schedule: Q01DX009 (ip), vehicle: Klucel (hydroxypropylcellulose) (HPC)) is 150 % of control; the T/C (dose: 10.0 mg/kg/injection, schedule: Q01DX009 (ip), vehicle: Klucel (hydroxypropylcellulose) (HPC)) was 172 % of control; the T/C (dose: 10.0 mg/kg/injection, schedule: Q01DX009 (ip), vehicle: saline) was 162 % of control; the T/C (dose: 16.5 mg/kg/injection, schedule: Q04DX003 (ip), vehicle: saline with Tween-80) is 168 % of control; the T/C (dose: 25.0 mg/kg/injection, schedule: Q04DX003 (ip), vehicle: saline with Tween-80) is 204 % of control; the T/C (dose: 37.5 mg/kg/injection, schedule: Q04DX003 (ip), vehicle: saline with Tween-80) is 200 % of control.

Turning to `NC(=O)NN=C1CSSC1`, the T/C by setting is: (dose: 0.78 mg/kg/injection, schedule: Q01DX009 (ip), vehicle: saline with Tween-80) 103 % of control; (dose: 0.78 mg/kg/injection, schedule: Q04DX003 (ip), vehicle: saline with Tween-80) 104 % of control; (dose: 1.56 mg/kg/injection, schedule: Q01DX009 (ip), vehicle: saline with Tween-80) 94 % of control; (dose: 1.56 mg/kg/injection, schedule: Q04DX003 (ip), vehicle: saline with Tween-80) 91 % of control; (dose: 3.12 mg/kg/injection, schedule: Q01DX009 (ip), vehicle: saline with Tween-80) 92 % of control; (dose: 3.12 mg/kg/injection, schedule: Q04DX003 (ip), vehicle: saline with Tween-80) 113 % of control. The T/C reads like this: (dose: 6.25 mg/kg/injection, schedule: Q01DX009 (ip), vehicle: saline with Tween-80) 92 % of control; (dose: 6.25 mg/kg/injection, schedule: Q04DX003 (ip), vehicle: saline with Tween-80) 100 % of control; under setting [4], 94 % of control; (dose: 12.5 mg/kg/injection, schedule: Q04DX003 (ip), vehicle: saline with Tween-80) 95 % of control.
